Experimental data published in patent US8841309B2, “Substituted pyrazines and their use in the treatment of disease” (Boehringer Ingelheim International GmbH, priority 2012, dated 2014).
Counter-ions that a name gives are not always drawn.

Target: T1, ENaC (Mus musculus, UniProt Q61180+Q9WU38+Q9WU39)
T1 construct: Mouse kidney M-1 cells were cultivated in DMEM containing 5% FCS and 5 μM dexamethasone; endogenous in cells; host or cells: mouse kidney M-1 cells
T1 sequence (Q61180 1-699): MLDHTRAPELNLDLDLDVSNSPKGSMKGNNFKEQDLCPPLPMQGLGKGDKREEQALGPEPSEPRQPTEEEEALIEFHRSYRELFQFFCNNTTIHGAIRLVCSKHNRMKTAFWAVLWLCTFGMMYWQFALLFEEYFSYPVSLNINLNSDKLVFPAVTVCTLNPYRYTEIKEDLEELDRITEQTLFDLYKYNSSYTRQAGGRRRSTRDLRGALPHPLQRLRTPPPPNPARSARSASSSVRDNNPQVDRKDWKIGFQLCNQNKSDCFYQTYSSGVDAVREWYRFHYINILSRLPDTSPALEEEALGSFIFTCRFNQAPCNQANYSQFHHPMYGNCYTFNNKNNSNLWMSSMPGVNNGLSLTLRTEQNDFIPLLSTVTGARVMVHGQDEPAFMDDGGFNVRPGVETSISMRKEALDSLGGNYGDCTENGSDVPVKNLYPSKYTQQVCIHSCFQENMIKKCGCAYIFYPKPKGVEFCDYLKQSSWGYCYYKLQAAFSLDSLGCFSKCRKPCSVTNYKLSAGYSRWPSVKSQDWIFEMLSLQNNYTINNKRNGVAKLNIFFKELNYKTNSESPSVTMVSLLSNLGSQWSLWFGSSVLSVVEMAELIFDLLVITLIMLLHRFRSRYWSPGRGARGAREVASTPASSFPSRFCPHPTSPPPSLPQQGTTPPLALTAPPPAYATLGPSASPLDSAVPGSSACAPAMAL
T1 sequence (Q9WU38 1-638): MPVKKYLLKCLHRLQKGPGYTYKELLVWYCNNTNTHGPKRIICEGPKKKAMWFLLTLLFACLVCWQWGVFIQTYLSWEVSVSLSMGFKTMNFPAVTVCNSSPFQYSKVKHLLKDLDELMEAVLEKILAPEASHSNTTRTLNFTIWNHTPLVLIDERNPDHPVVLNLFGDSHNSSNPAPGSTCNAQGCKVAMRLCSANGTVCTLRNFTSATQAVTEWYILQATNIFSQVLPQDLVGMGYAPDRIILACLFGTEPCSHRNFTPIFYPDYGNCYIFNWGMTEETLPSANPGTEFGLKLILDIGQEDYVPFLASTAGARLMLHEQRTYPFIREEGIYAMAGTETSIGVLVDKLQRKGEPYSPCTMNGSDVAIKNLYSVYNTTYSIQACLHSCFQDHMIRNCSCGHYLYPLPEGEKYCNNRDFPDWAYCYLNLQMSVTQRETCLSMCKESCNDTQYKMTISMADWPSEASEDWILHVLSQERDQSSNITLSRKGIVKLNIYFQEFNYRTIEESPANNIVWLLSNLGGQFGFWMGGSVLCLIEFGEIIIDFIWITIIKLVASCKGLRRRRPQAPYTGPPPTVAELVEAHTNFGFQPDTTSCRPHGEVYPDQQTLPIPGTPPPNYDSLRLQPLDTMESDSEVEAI
T1 sequence (Q9WU39 1-655): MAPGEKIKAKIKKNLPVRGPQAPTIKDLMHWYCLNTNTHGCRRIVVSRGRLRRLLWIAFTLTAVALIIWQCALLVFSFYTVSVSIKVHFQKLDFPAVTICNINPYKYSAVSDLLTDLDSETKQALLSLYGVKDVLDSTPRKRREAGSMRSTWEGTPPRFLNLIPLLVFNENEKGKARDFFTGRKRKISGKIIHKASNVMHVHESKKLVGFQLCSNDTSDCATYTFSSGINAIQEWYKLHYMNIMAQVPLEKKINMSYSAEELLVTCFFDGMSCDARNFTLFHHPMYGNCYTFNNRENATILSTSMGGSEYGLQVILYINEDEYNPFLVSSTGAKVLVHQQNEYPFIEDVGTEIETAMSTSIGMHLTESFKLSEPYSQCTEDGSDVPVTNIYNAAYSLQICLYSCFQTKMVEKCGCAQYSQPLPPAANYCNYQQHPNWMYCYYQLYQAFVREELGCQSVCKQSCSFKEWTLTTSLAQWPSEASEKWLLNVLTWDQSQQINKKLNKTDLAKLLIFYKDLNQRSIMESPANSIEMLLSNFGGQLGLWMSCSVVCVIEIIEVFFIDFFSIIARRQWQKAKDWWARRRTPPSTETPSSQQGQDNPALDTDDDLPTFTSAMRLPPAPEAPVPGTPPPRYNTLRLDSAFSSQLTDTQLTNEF
Experiment: Ussing chamber: short circuit current (I_sc) in mouse kidney M-1 cells, amiloride-sensitive
Format: cell-based
Settings: compound applied to apical solution, 37° C.
Experimental: Ussing Chamber: Mouse kidney M-1 cells were cultivated in DMEM containing 5% FCS and 5 μM dexamethasone for 10 to 12 days on polyester transwell filters. Filters were inserted into a teflon-coated well-plate which fit into the in-house ussing chamber system. Prior to measurement the medium of M-1 cells was replaced with Caco-2 transport buffer (Invitrogen, Germany). During measurements, the Ussing chamber temperature was kept at 37° C. Short circuit currents (I_sc) were measured in the voltage-clamp mode using an in-house built amplifier (Boehringer Ingelheim, Biberach) with the software package Lab View for data acquisition and analysis. The transepithelial electrical resistance (TEER) was determined by the application of voltage steps of ±5 mV every 5 sec. Compounds were administered at a final concentration of 3 μM or at increasing concentrations (1-3-10 μM) to the apical solution. At the end of each experiment the amiloride sensitive I_SC was measured by adding 3 μM amiloride to the apical compartment. Results are expressed as inhibition in percent of the amiloride effect or as IC50.

SMILES | IC50
CCNC(=O)C(c1ccccc1)[N+]12CCC(CC1)[C@H](NC(=N)NC(=O)c1nc(Cl)c(N)nc1N)C2 (stereo partly drawn) [Example 68.1, (S)-3-[N′-(3,5-Diamino-6-chloro-pyrazine-2-carbonyl)-guanidino]-1-(ethylcarbamoyl-phenyl-methyl)-1-azonia-bicyclo[2.2.2]octane bromide] | 18 nM
N/C(=N\C(=O)c1nc(Cl)c(N)nc1N)NC1C[N+]2(CC(=O)O)CCC1CC2 (centres unmarked) [Example 1, 1-Carboxymethyl-3-[N′-(3,5-diamino-6-chloro-pyrazine-2-carbonyl)-guanidino]-1-azoniabicyclo[2.2.2]octane bromide] | 468 nM
CC(C)NC(=O)C[N+]12CCC(CC1)[C@H](NC(N)=NC(=O)c1nc(Cl)c(N)nc1N)C2 [Example 49] | 29 nM
C[N+]1(CC(=O)NCc2ccc(Cl)cc2)CCC[C@H](N/C(N)=N/C(=O)c2nc(Cl)c(N)nc2N)C1 (mixture of isomers) [Example 71.1] | 30.6 nM
CCOC(=O)c1cccc(CCNC(=O)C[N+]23CCC(CC2)[C@H](NC(N)=NC(=O)c2nc(Cl)c(N)nc2N)C3)c1 [Example 77] | 43 nM
NC(=NC(=O)c1nc(Cl)c(N)nc1N)N[C@@H]1C[N+]2(CC(=O)c3ccccc3)CCC1CC2 [Example 41] | 63 nM
NC(=NC(=O)c1nc(Cl)c(N)nc1N)N[C@@H]1C[N+]2(Cc3ccc(C(F)(F)F)cc3)CCC1CC2 [Example 18] | 43 nM
C[N+]1(Cc2ccccc2)CCC(N/C(N)=N/C(=O)c2nc(Cl)c(N)nc2N)CC1 (centres unmarked) [Example 70, 1-Benzyl-4-[N′-(3,5-diamino-6-chloro-pyrazine-2-carbonyl)-guanidino]-1-methyl-piperidinium chloride] | 106 nM
NC(=NC(=O)c1nc(Cl)c(N)nc1N)N[C@@H]1C[N+]2(Cc3cc(F)cc(F)c3)CCC1CC2 [Example 36] | 30 nM
NC(=NC(=O)c1nc(Cl)c(N)nc1N)N[C@@H]1C[N+]2(Cc3ccc(Cl)cc3)CCC1CC2 [Example 15] | 18 nM
COC(=O)c1cccc(C[N+]2(C)CCC[C@H](N/C(N)=N/C(=O)c3nc(Cl)c(N)nc3N)C2)c1 (stereo in doubt) [Example 72, (S)-3-[N′-(3,5-Diamino-6-chloro-pyrazine-2-carbonyl)-guanidino]-1-(3-methoxycarbonyl-benzyl)-1-methyl-piperidinium chloride] | 122 nM
NC(=NC(=O)c1nc(Cl)c(N)nc1N)N[C@@H]1C[N+]2(Cc3ccc(OCc4ccccc4)cc3)CCC1CC2 [Example 19] | 32 nM
NC(=NC(=O)c1nc(Cl)c(N)nc1N)N[C@@H]1C[N+]2(Cc3ccc(Cl)s3)CCC1CC2 [Example 29] | 29 nM
COc1cc(C[N+]23CCC(CC2)[C@H](NC(N)=NC(=O)c2nc(Cl)c(N)nc2N)C3)cc(OC)c1 [Example 28] | 80 nM
NC(=NC(=O)c1nc(Cl)c(N)nc1N)N[C@@H]1C[N+]2(Cc3ccc(F)c(F)c3)CCC1CC2 [Example 38] | 23 nM
CSc1ccc(C[N+]23CCC(CC2)[C@H](NC(N)=NC(=O)c2nc(Cl)c(N)nc2N)C3)cc1 [Example 52] | 67 nM
C[N+]1(Cc2ccccc2)CCC[C@H](N/C(N)=N/C(=O)c2nc(Cl)c(N)nc2N)C1 (stereo in doubt) [Example 71, (S)-1-Benzyl-3-[N′-(3,5-diamino-6-chloro-pyrazine-2-carbonyl)-guanidino]-1-methyl-piperidinium chloride] | 81 nM
COC(=O)c1ccccc1NC(=O)C[N+]1(C)CCC(NC(N)=NC(=O)c2nc(Cl)c(N)nc2N)CC1 (centres unmarked) [Example 72.3] | 22 nM
N#Cc1cccc(C[N+]23CCC(CC2)[C@H](NC(N)=NC(=O)c2nc(Cl)c(N)nc2N)C3)c1 [Example 33] | 38 nM
N=C(NC(=O)c1nc(Cl)c(N)nc1N)N[C@@H]1C[N+]2(CC(=O)N[C@@H](Cc3ccccc3)C(=O)O)CCC1CC2 [Example 73, (S)-1-[((S)-1-Carboxy-2-phenyl-ethylcarbamoyl)-methyl]-3-[N′-(3,5-diamino-6-chloro-pyrazine-2-carbonyl)-guanidino]-1-azonia-bicyclo[2.2.2]octane chloride hydrochloride] | 4 nM
